Assay results published in article PMC9303812, “Asymmetrically Substituted m‐Terphenyl Phosphates Inhibit the Transcription Factor STAT5a” (Chembiochem, 2021).
Read-outs that look alike come from different tables or passages of the source.

Biological target: T1, STAT5b (Homo sapiens, UniProt P51692)
T1 sequence (P51692 1-787): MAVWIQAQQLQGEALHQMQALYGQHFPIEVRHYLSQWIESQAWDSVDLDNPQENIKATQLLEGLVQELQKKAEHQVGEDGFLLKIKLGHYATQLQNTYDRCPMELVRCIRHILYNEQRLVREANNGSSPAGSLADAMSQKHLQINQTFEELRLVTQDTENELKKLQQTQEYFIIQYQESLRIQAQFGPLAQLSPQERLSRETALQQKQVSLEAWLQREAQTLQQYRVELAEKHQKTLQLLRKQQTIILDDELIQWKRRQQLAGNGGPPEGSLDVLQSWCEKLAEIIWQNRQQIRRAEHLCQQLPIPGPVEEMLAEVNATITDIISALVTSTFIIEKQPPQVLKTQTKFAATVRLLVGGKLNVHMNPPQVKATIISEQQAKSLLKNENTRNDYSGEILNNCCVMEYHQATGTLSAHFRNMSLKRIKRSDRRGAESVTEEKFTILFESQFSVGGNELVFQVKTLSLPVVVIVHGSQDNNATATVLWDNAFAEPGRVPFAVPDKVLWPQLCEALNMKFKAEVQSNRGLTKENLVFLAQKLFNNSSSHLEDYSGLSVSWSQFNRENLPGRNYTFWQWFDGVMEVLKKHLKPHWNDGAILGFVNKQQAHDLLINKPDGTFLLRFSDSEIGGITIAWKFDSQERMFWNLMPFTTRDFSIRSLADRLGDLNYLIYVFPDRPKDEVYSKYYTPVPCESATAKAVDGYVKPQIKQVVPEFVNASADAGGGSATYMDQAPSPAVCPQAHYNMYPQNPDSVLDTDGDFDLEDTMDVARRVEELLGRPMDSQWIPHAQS
Assay: Fluorescence polarization (FP) binding assay, STAT5b
Protocol: Table S1: Activities of test compounds against STAT5a and STAT5b in FP assays . Experiments were carried out in triplicate (n = 3) unless stated otherwise. n/a: not applicable.
[a]data taken from the literature.[1]
Ki values were calculated from IC50 values using the published equation.[2] […]
Table S2: Activities of 12 against STAT5 proteins in FP assays.
Fluorescence polarization assays
Fluorescence polarization assays were essentially carried out as previously described.[1] These assays quantitate to which extent a test compound is able to interfere with binding between a STAT protein and a fluorescein-labeled phosphotyrosine-containing peptide, which is known to bind to the SH2 domain of the respective STAT protein. The following protein […]
concentrations were used: 100 nM for STAT1, 150 nM for STAT3, 30 nM for STAT4, 180 nM for STAT5a, 90 nM for STAT5b and 105 nM for STAT6. All peptides were used at a concentration of 10 nM. The following peptides were used: 5 -carboxyfluorescein -GpYDKPHVL for STAT1; 5-carboxyfluorescein -GpYLPQTV-NH2 for STAT3; 5-carboxyfluorescein-GpYLPQNID-OH for STAT4; 5-carboxyfluorescein-GpYLVLDKW for STAT5a/b, and 5-carboxyfluorescein-GpYVPWQDLI-OH for STAT6. As a buffer system, 10 mM Tris (pH 8.0), 50 mM NaCl, 1 mM EDTA, 1 mM DTT, 0.1 % Nonidet P-40 substitute, and 2 % DMSO in water was used. All compounds tested were incubated for 1 h with the protein. Subsequently, the fluorescein-labeled peptide was added and the fluorescence polarization was measured with an Infinite F500 plate reader (Tecan) after another hour. IC50 values were converted to Ki-values using the published equation.[2]

| Ki (FP assay, Ki calculated from IC50 (n=3; 6 a n=2), read-out: STAT5b Ki) | IC50 (FP assay, n=3 (6a n=2), read-out: STAT5b IC50) | Structure (SMILES) | IC50 | Ki |
| --- | --- | --- | --- | --- |
| 24.9 ± 3.3 µM | 50.7 ± 6.8 µM | COc1cc(-c2cc(-c3cc(F)c(F)c(F)c3)cc(C(F)P(=O)(O)O)c2)cc(OC)c1OC (stereo not shown) [compound 12] | – | – |
| – | – | COc1cc(-c2cc(OP(=O)(O)O)cc(-c3cc(F)c(F)c(F)c3)c2)cc(OC)c1OC [6 b] | 59.4 ± 3.4 µM | 29.2 ± 1.7 µM |
